One block for each molecule: values may come before it. The source made the active and inactive calls. The rule behind the calls is not given here.
Tests used:
[1] = biological target: T1, Choline O-acetyltransferase (Rattus norvegicus) (UniProt P32738); assay: Compound was tested in vitro for choline acetyltransferase (ChAT) activity (maximal ChAT stimulation) in embryonic rat spinal cord cultures at a concentration of 10 uM; inactive
T1 sequence (whole entry): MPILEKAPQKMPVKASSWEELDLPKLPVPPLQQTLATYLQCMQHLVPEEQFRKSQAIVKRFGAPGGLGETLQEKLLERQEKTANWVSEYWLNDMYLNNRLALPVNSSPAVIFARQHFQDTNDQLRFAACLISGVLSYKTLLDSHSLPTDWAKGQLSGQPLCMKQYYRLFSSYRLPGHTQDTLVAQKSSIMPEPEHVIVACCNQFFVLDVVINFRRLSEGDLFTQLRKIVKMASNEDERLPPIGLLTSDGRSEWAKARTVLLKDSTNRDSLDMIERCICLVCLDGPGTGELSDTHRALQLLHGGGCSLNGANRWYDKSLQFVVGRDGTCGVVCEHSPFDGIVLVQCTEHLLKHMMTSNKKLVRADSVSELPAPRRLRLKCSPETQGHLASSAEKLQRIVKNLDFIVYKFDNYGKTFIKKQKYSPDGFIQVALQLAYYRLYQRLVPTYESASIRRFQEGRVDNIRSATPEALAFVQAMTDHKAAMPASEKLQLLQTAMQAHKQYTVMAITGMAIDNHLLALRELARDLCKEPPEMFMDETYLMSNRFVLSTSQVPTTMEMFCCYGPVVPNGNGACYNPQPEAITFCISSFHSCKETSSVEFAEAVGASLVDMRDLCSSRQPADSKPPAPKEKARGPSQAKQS

[2] = biological target: T1, Choline O-acetyltransferase (Rattus norvegicus); assay: Compound was tested in vitro for choline acetyltransferase (ChAT) activity (maximal ChAT stimulation) in embryonic rat spinal cord cultures at a concentration of 1 uM; type: tissue-based
[3] = biological target: T1, Choline O-acetyltransferase (Rattus norvegicus); assay: Compound was tested in vitro for choline acetyltransferase (ChAT) activity (maximal ChAT stimulation) in embryonic rat spinal cord cultures at a concentration of 10 uM; Inactive; type: tissue-based
[4] = biological target: T1, Choline O-acetyltransferase (Rattus norvegicus); assay: Compound was tested in vitro for choline acetyltransferase (ChAT) activity (maximal ChAT stimulation) in embryonic rat spinal cord cultures at a concentration of 0.300 uM; type: tissue-based
[5] = biological target: T1, Choline O-acetyltransferase (Rattus norvegicus); assay: Compound was tested in vitro for choline acetyltransferase (ChAT) activity (maximal ChAT stimulation) in embryonic rat spinal cord cultures at a concentration of 10 uM; type: tissue-based

Control [1]: inactive
SMILES: O=C1NCc2c(-c3ccccc3)cc3[nH]c4ccc(/C=C/c5ccccc5)cc4c3c21

Control [2]: 146%
SMILES: O=C1NCc2c(-c3ccccc3)cc3[nH]c4ccc(Br)cc4c3c21

Control [3]: inactive
SMILES: CN1Cc2c(-c3ccccc3)cc3c(c2C1=O)c1ccccc1n3C

SMILES: COC(=O)[C@]1(O)C[C@@H]2O[C@@]1(C)n1c3ccccc3c3c4c(c5c6ccccc6n2c5c31)C(=O)NC4
Control [4]: 186%

Control [5]: 159%
SMILES: Cn1c2ccccc2c2c3c(c(-c4ccccc4)cc21)CNC3=O

Control [5]: 167%
SMILES: O=C1NCc2c(-c3ccccc3)cc3[nH]c4ccccc4c3c21

Control [1]: inactive
SMILES: CC(C)(C)OC(=O)/C=C/c1ccc2[nH]c3cc(-c4ccccc4)c4c(c3c2c1)C(=O)NC4

SMILES: O=C1NCc2c1c1c3ccccc3[nH]c1c1[nH]c3ccccc3c21
Control [2]: 162%

Control [1]: inactive
SMILES: O=C1NCc2c1c(-c1ccccc1)cc1[nH]c3ccccc3c21
